Source: ChEMBL document CHEMBL1137038, “7-Substituted 2-phenyl-benzofurans as ER beta selective ligands” (Bioorg Med Chem Lett, 2004)

Biological target: T1, Estrogen receptor (Homo sapiens, UniProt P03372)
T1 sequence (P03372 whole entry): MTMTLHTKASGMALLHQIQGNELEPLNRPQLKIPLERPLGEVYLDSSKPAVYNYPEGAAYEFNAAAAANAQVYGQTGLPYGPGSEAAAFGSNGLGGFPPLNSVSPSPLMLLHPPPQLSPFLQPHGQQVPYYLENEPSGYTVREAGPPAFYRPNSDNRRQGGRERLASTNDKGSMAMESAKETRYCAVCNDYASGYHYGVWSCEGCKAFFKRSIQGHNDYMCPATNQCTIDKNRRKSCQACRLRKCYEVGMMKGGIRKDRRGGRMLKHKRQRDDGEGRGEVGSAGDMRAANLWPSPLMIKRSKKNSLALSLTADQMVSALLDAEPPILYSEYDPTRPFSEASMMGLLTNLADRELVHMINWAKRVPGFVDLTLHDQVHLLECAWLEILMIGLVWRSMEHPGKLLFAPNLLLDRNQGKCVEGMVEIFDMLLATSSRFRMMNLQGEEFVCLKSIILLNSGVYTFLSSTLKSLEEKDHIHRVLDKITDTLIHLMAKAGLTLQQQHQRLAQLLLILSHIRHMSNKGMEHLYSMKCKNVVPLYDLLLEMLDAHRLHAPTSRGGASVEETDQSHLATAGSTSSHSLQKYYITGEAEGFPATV
Description: Binding affinity for human Estrogen receptor alpha

Compound	IC50 [nM]
COc1cc(O)cc2cc(-c3ccc(O)c(F)c3)oc12	990
COc1cc(O)c(Br)c2cc(-c3ccc(O)c(F)c3)oc12	335
